According to US20230338391A1, “TREATMENT FOR DEPRESSION” (TAKEDA PHARMACEUTICAL COMPANY LIMITED, priority 2020, published 2023):

System: healthy subjects
Test: TMS crossover study: safety and tolerability
Settings: 0.5 mg/kg IV infusion, 20 subjects

Compound: CNC1(c2ccccc2Cl)CCCCC1=O (stereo not shown) [ketamine, reference compound]
- discontinuation because of AEs: One subject in the ketamine treatment was discontinued from study drug because of AEs
